According to patent US10287615B2, “Sophorolactone production” (ECOVER CO-ORDINATION CENTER N.V., priority 2011, dated 2019):

Assays:
[1] = Storage stability of non-aqueous sophorolactone solution, HPLC-ELSD; format: physicochemical; settings: for acid sophorolipid peak (hydrolysis of lactone), share of the total peak area: 10 g sophorolactone in 90 g ethyllactate or isoamyl lactate
Description: Both samples were split in 50 ml samples and stored at 4° C. and at 40° C. respectively. After 2 months of storage they were analyzed with HPLC-ELSD. The results are as illustrated by the chromatograms depicted in FIG. 7 and FIG. 8. After 2 months of storage at either 4° C., result depicted in FIG. 7, or 40° C., result depicted in FIG. 8, of this non-aqueous sophorolactone solution only a negligible hydrolysis of lactone material occurred as evidenced by an acid sophorolipid peak appearing at 30.5 min in the grey overlay graph. This peak represents less than 1% of the total peak area.

[2] = Stain removal efficacy in automatic dishwashing on soil plates; settings: for average Rw (Y reflection value for washed): 1.4% surfactant in base formula, 50° C. eco; for soil removal: Rw minus Rs
Excerpt: A sophorolipid lactone sample obtained from the experiment described in Example 8 was centrifuged, spread out on Torck paper and allowed to air dry. The resulting solid was crushed with a coffee mill to a fine powder and dried further with compressed air to >98 wt %. This powder was compared as to its efficiency in automatic dishwashing versus a low foaming alkylpolyglucoside, in particular Simulsol AS48, available from Seppic SA, at equal active matter content. […] 20 gram of the base formula was dosed in a ZDF211 dishwasher. Program D 50° C. eco was run.
In the automatic dishwasher 7 types of soil plates (available from CFT, Vlaardingen, The Netherlands) mounted in a stainless steel holding frame were inserted.

[3] = Static surface tension, pending drop method on a Krüss DSA100 tensiometer; format: physicochemical; settings: water 71.26
Description: The lactone obtained in Example 10 was partially hydrolysed in degrees ranging from 0 to 2 equivalents using potassium hydroxide. Partial alkaline hydrolysis in this context implies that less than 3 mol KOH were added per mol lactone. As a consequence only part of the 3 ester bonds, i.e. the lactonic bond and the two acetyl ester bonds, was hydrolysed and a mixture of various sophorolipids formed.
The static surface tension of the partial hydrolysates obtained in the above described experiment was measured according to the pending drop method on a Krüss DSA100 tensiometer.

In the case of sophorolactone, the “storage stability of non-aqueous solution (chromatogram overlay)” value ([1]; 2 months of storage at 40° C.) is reported as “storage stable”, the “acid sophorolipid peak (hydrolysis of lactone), share of the total peak area” value ([1]; 2 months of storage at 4° C.) is reported as “less than 1%” and the “acid sophorolipid peak (hydrolysis of lactone), share of the total peak area” value ([1]; 2 months of storage at 40° C.) is reported as “less than 1%”. For the same substance, the “storage stability of non-aqueous solution (chromatogram overlay)” value ([1]; storage at 4° C. for 2 months) was “storage stable”, the “soil removal rates, overall comparison” value ([2]; automatic dishwashing, equal active matter content, alkaline pH of about 9.8) was “superior to Simulsol AS48” and the “average Rw (Y reflection value for washed)” value (from here on “average Rw”) ([2]; stain Cheese DM06) was 41.9. For the same substance, the soil removal ([2]; stain Cheese DM06) was 16.9, the “average Rw” value ([2]; stain Chocolate DM75) was 24.9 and the soil removal ([2]; stain Chocolate DM75) was 7.1. The “average Rw” value ([2]; stain Coffee DM81) was 77.5, the soil removal ([2]; stain Coffee DM81) was 7.3 and the “average Rw” value ([2]; stain Egg yolk/milk DM31) was 52.0. For the same substance, the soil removal ([2]; stain Egg yolk/milk DM31) was 6.8, the “average Rw” value ([2]; stain Mix starch DM77) was 37.6 and the soil removal ([2]; stain Mix starch DM77) was 1.6. For the same substance, the “average Rw” value ([2]; stain Red wine DM51) was 72.4, the soil removal ([2]; stain Red wine DM51) was 17.1 and the “average Rw” value ([2]; stain Tea DM11) was 75.7. For the same substance, the soil removal ([2]; stain Tea DM11) was 14.6, the Surface tension ([3]; Conc. 10 ppm) was 71.00 mN/m and the Surface tension ([3]; Conc. 50 ppm) was 66.21 mN/m. The Surface tension ([3]; Conc. 100 ppm) was 63.02 mN/m, the Surface tension ([3]; Conc. 250 ppm) was 47.67 mN/m and the Surface tension ([3]; Conc. 1000 ppm) was 36.69 mN/m. It also gave a Surface tension ([3]; Conc. 2000 ppm) of 36.26 mN/m, a Surface tension ([3]; Conc. 5000 ppm) of 35.85 mN/m and a Surface tension ([3]; Conc. 10000 ppm) of 35.33 mN/m. The Surface tension ([3]; Conc. 25000 ppm) was 35.54 mN/m and the Surface tension ([3]; Conc. 50000 ppm) was 35.14 mN/m.
